The target in the first test is T1, human GCS (glucosylceramide synthase) (Homo sapiens, UniProt Q16739).
T1 construct: made in house; host or cells: Expi293F cells (transient expression; microsome fraction)
T1 sequence (Q16739 1-394): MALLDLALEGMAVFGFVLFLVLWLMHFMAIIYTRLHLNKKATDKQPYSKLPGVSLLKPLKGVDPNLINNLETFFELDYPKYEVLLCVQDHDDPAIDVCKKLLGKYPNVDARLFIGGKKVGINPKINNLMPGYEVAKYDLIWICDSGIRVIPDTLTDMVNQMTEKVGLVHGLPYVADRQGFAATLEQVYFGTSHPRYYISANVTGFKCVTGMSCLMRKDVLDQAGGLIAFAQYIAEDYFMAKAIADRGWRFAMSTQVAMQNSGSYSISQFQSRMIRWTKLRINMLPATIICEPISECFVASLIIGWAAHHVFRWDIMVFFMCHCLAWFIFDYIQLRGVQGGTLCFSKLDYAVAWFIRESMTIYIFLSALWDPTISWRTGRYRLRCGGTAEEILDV
Put plainly: Glucosylceramide Synthase (GCS) Assay. In kind it is biochemical. To be noted: test compound 10 μM; microsome fraction of Expi293F cells expressing human GCS; 1.7 μM UDP-glucose, 3 μM C8 ceramide; room temperature 60 min; C8 glucosylceramide by Rapidfire MS/MS. In short, it runs like this: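 Enzyme source was a microsome fraction from Expi293F cells transiently expressing human GCS. Reaction ran 60 min at room temperature in 20 mM Tris pH 7.5 with 1.7 μM UDP-glucose (Km) and 3 μM liposomal C8 ceramide, compound at 10 μM final. C8 glucosylceramide quantified by RapidFire MS/MS; inhibition scaled between enzyme-free and DMSO controls.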
With `O=C(Nc1ccc(C(O)C2CC2)nc1)c1cccn(-c2ccc(F)cc2OCC(F)(F)F)c1=O` (single isomer, unassigned) [Example 116, (R or S)-N-{6-[cyclopropyl(hydroxy)methyl]pyridin-3-yl}-1-[4-fluoro-2-(2,2,2-trifluoroethoxy)phenyl]-2-oxo-1,2-dihydropyridine-3-carboxamide], the “GCS enzyme inhibitory rate at 10 μM (%)” value is 97%.

Staying with this test, now noted: test compound 10 μM; microsome fraction of Expi293F cells expressing human GCS; 1.7 μM UDP-glucose, 3 μM C8 ceramide; room temperature 60 min; C8 glucosylceramide by Rapidfire MS/MS; read-out: GCS enzyme inhibitory rate at 10 μM (%).
Turning to `O=C(Nc1ccc(C(O)(C(F)F)C(F)F)cc1)c1cccn(-c2ccc(F)cc2OCC(F)(F)F)c1=O` [Example 78, 1-[4-fluoro-2-(2,2,2-trifluoroethoxy)phenyl]-2-oxo-N-[4-(1,1,3,3-tetrafluoro-2-hydroxypropan-2-yl)phenyl]-1,2-dihydropyridine-3-carboxamide], the inhibition at 10 µM is 100%.

As for `COc1cc(F)ccc1-n1cccc(C(=O)Nc2ccc(OC(F)F)nc2)c1=O` [Example 16, N-[6-(difluoromethoxy)pyridin-3-yl]-1-(4-fluoro-2-methoxyphenyl)-2-oxo-1,2-dihydropyridine-3-carboxamide], the inhibition at 10 µM was 69%.

Consider `COc1cc(F)ccc1-n1cccc(C(=O)Nc2ccc(OC(F)(F)F)cc2)c1=O` [Example 6, 1-(4-fluoro-2-methoxyphenyl)-2-oxo-N-[4-(trifluoromethoxy)phenyl]-1,2-dihydropyridine-3-carboxamide], for which the inhibition at 10 µM was 52%.

On to `O=C(Nc1ccn(-c2ccc(F)cc2)n1)c1cccn(-c2ccccc2OCC(F)(F)F)c1=O` [Example 12, N-[1-(4-fluorophenyl)-1H-pyrazol-3-yl]-2-oxo-1-[2-(2,2,2-trifluoroethoxy)phenyl]-1,2-dihydropyridine-3-carboxamide], for which the inhibition at 10 µM came to 97%.

Take `CC(C)(O)COc1cc(F)ccc1-n1cccc(C(=O)Nc2ccc(OCC(F)(F)F)nc2)c1=O` [Example 67, 1-[4-fluoro-2-(2-hydroxy-2-methylpropoxy)phenyl]-2-oxo-N-[6-(2,2,2-trifluoroethoxy)pyridin-3-yl]-1,2-dihydropyridine-3-carboxamide]: the inhibition at 10 µM was 89%.

Consider `CC(C)(O)c1ccc(NC(=O)c2cc(C(C)(C)O)nn(-c3ccccc3OCC(F)(F)F)c2=O)cc1` [Example 202, 6-(2-hydroxypropan-2-yl)-N-[4-(2-hydroxypropan-2-yl)phenyl]-3-oxo-2-[2-(2,2,2-trifluoroethoxy)phenyl]-2,3-dihydropyridazine-4-carboxamide], for which the inhibition at 10 µM turned out to be 99%.

On to `O=C(Nc1cnc(OC(F)F)nc1)c1cccn(-c2ccc(F)cc2OCC(F)(F)F)c1=O` [Example 51, N-[2-(difluoromethoxy)pyrimidin-5-yl]-1-[4-fluoro-2-(2,2,2-trifluoroethoxy)phenyl]-2-oxo-1,2-dihydropyridine-3-carboxamide], for which the inhibition at 10 µM came out at 84%.

For the compound `CC(C)(O)c1ccc(NC(=O)c2cccn(-c3cc(F)ccc3OCC(F)(F)F)c2=O)cn1` [Example 125, 1-[5-fluoro-2-(2,2,2-trifluoroethoxy)phenyl]-N-[6-(2-hydroxypropan-2-yl)pyridin-3-yl]-2-oxo-1,2-dihydropyridine-3-carboxamide], the inhibition at 10 µM is 82%.

As to `O=C(Nc1ccc(C(O)(C(F)F)C(F)F)cc1)c1cn(C2CCOC2)nc(-c2ccccc2OCC(F)F)c1=O` (racemic) [Example 196, rac-6-[2-(2,2-difluoroethoxy)phenyl]-5-oxo-2-(oxolan-3-yl)-N-[4-(1,1,3,3-tetrafluoro-2-hydroxypropan-2-yl)phenyl]-2,5-dihydropyridazine-4-carboxamide], the inhibition at 10 µM came out at 100%.

Regarding `CC(C)(O)c1ccc(NC(=O)c2cccn(-c3ccccc3OCC(F)(F)F)c2=O)cc1` [Example 63], the inhibition at 10 µM was 100%.

Consider `Cc1cc(C(=O)Nc2ccc(C(C)(C)O)cc2F)c(=O)n(-c2ccccc2OCC(F)F)n1` [Example 146, 2-[2-(2,2-difluoroethoxy)phenyl]-N-[2-fluoro-4-(2-hydroxypropan-2-yl)phenyl]-6-methyl-3-oxo-2,3-dihydropyridazine-4-carboxamide], for which the inhibition at 10 µM amounted to 100%.

On to `O=C(Nc1ccc(C2CCCO2)cc1)c1ccnn(-c2ccccc2OCC(F)F)c1=O` (racemic) [Example 144, rac-2-[2-(2,2-difluoroethoxy)phenyl]-3-oxo-N-[4-(oxolan-2-yl)phenyl]-2,3-dihydropyridazine-4-carboxamide], for which the inhibition at 10 µM stood at 100%.

Take `O=C(Nc1ccc(C2(O)CCC2)cc1)c1cccn(-c2ccc(F)cc2OCC(F)(F)F)c1=O` [Example 97, 1-[4-fluoro-2-(2,2,2-trifluoroethoxy)phenyl]-N-[4-(1-hydroxycyclobutyl)phenyl]-2-oxo-1,2-dihydropyridine-3-carboxamide]: the inhibition at 10 µM stood at 99%.

Regarding `Cc1cc(NC(=O)c2ccnn(-c3ccccc3OCC(F)F)c2=O)ccc1C(C)(C)O` [Example 142, 2-[2-(2,2-difluoroethoxy)phenyl]-N-[4-(2-hydroxypropan-2-yl)-3-methylphenyl]-3-oxo-2,3-dihydropyridazine-4-carboxamide], the inhibition at 10 µM stood at 98%.

Regarding `CC(C)(O)c1ccc(NC(=O)c2cccn(-c3cccnc3OCC(F)(F)F)c2=O)cc1` [Example 114, N-[4-(2-hydroxypropan-2-yl)phenyl]-2-oxo-2′-(2,2,2-trifluoroethoxy)-2H-[1,3′-bipyridine]-3-carboxamide], the inhibition at 10 µM came to 96%.

Take `CC(C)(O)c1ccc(NC(=O)c2ccnn(-c3ccccc3OCC(F)(F)F)c2=O)c(F)c1` [Example 148, N-[2-fluoro-4-(2-hydroxypropan-2-yl)phenyl]-3-oxo-2-[2-(2,2,2-trifluoroethoxy)phenyl]-2,3-dihydropyridazine-4-carboxamide]: the inhibition at 10 µM amounted to 100%.

Turning to `Cc1cc(C(C)(C)O)ccc1NC(=O)c1ccnn(-c2ccccc2OCC(F)F)c1=O` [Example 143, 2-[2-(2,2-difluoroethoxy)phenyl]-N-[4-(2-hydroxypropan-2-yl)-2-methylphenyl]-3-oxo-2,3-dihydropyridazine-4-carboxamide], the inhibition at 10 µM was determined as 97%.

In the case of `O=C(Nc1ccc(C(O)(C(F)F)C(F)F)nc1)c1cn(C2CCOC2)nc(-c2ccccc2OCC(F)F)c1=O` (racemic) [Example 195, rac-6-[2-(2,2-difluoroethoxy)phenyl]-5-oxo-2-(oxolan-3-yl)-N-[6-(1,1,3,3-tetrafluoro-2-hydroxypropan-2-yl)pyridin-3-yl]-2,5-dihydropyridazine-4-carboxamide], the inhibition at 10 µM came out at 100%.

Consider `O=C(Nc1ccc(C(O)(C(F)F)C(F)F)nc1)c1cn(CC(F)F)nc(-c2ccccc2OCC(F)F)c1=O` [Example 186, 6-[2-(2,2-difluoroethoxy)phenyl]-2-(2,2-difluoroethyl)-5-oxo-N-[6-(1,1,3,3-tetrafluoro-2-hydroxypropan-2-yl)pyridin-3-yl]-2,5-dihydropyridazine-4-carboxamide], for which the inhibition at 10 µM was found to be 100%.

As to `CC(O)c1cc(C(=O)Nc2ccc(OC(F)F)cc2)c(=O)n(-c2ccccc2OCC(F)(F)F)n1` (racemic) [Example 199, rac-N-[4-(difluoromethoxy)phenyl]-6-(1-hydroxyethyl)-3-oxo-2-[2-(2,2,2-trifluoroethoxy)phenyl]-2,3-dihydropyridazine-4-carboxamide], the inhibition at 10 µM was 100%.

For the compound `CC(C)(O)c1ccc(NC(=O)c2cn(CC(F)F)nc(-c3ccccc3OCC(F)F)c2=O)cc1` [Example 179, 6-[2-(2,2-difluoroethoxy)phenyl]-2-(2,2-difluoroethyl)-N-[4-(2-hydroxypropan-2-yl)phenyl]-5-oxo-2,5-dihydropyridazine-4-carboxamide], the inhibition at 10 µM amounted to 99%.

Turning to `N#Cc1ccc(NC(=O)c2cccn(-c3ccccc3OCC(F)(F)F)c2=O)nc1` [Example 31, N-(5-cyanopyridin-2-yl)-2-oxo-1-[2-(2,2,2-trifluoroethoxy)phenyl]-1,2-dihydropyridine-3-carboxamide], the inhibition at 10 µM is 92%.

As to `CC(C)(O)c1ccc(NC(=O)c2ccnn(-c3ccccc3OCC(F)(F)F)c2=O)cn1` [Example 126, N-[6-(2-hydroxypropan-2-yl)pyridin-3-yl]-3-oxo-2-[2-(2,2,2-trifluoroethoxy)phenyl]-2,3-dihydropyridazine-4-carboxamide], the inhibition at 10 µM was 97%.

Regarding `O=C(Nc1ccc(OCC(F)(F)F)nc1)c1cccn(-c2ccccc2OCC(F)(F)F)c1=O` [Example 15, 2-oxo-1-[2-(2,2,2-trifluoroethoxy)phenyl]-N-[6-(2,2,2-trifluoroethoxy)pyridin-3-yl]-1,2-dihydropyridine-3-carboxamide], the inhibition at 10 µM worked out at 100%.

As for `CC(C)(O)c1ccc(NC(=O)c2ccnn(-c3ccccc3OCC(F)F)c2=O)c(F)c1` [Example 147, 2-[2-(2,2-difluoroethoxy)phenyl]-N-[2-fluoro-4-(2-hydroxypropan-2-yl)phenyl]-3-oxo-2,3-dihydropyridazine-4-carboxamide], the inhibition at 10 µM worked out at 100%.

With `CCOC(=O)c1ccc(NC(=O)c2cc(C)nn(-c3ccccc3OCC(F)F)c2=O)s1` [Example 170, ethyl 5-({2-[2-(2,2-difluoroethoxy)phenyl]-6-methyl-3-oxo-2,3-dihydropyridazine-4-carbonyl}amino)thiophene-2-carboxylate], the inhibition at 10 µM came to 65%.

Values taken from patent US20220289679A1, “HETEROCYCLIC COMPOUND” (Takeda Pharmaceutical Company Limited, priority 2019, published 2022).
